Reference: US11267861B2, “Peptide-oligourea foldamer compounds and methods of their use” (UREKA SARL, priority 2016, dated 2022)
Converted amounts (≈) assume the structure as drawn.

Columns and labels:
[1] = biological target: T1, Leucyl aminopeptidase (EC 3.4.11.1) (Sus scrofa, UniProt P28839); assay: Enzymatic degradation by leucyl aminopeptidase; assay type: in vitro ADME, porcine; settings: compared to the native peptides
T1 construct: from porcine kidney (Sigma); chromatographically purified suspension; purchased Sigma; host or cells: porcine kidney
T1 sequence (P28839 1-519): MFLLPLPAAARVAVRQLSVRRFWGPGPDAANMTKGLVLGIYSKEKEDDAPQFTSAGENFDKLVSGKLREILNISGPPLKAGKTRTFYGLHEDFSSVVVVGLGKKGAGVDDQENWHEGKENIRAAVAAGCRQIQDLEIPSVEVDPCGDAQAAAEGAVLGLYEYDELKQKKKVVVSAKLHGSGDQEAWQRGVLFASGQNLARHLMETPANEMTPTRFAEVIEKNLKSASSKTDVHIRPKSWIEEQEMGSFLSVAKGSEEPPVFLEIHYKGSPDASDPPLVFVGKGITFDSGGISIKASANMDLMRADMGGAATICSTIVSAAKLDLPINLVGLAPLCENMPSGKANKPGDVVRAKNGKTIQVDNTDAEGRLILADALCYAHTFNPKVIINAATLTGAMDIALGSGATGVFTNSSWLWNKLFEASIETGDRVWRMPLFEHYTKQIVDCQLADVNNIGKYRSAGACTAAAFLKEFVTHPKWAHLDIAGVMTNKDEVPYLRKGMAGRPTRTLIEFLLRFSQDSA
Protocol: Enzymatic Degradation—Leucyl Aminopeptidase. Leucyl aminopeptidase (EC 3.4.11.1) from porcine kidney (Sigma); chromatographically purified suspension in 2.9 M (NH4)2SO4, 0.1 M Tris, 5 mM MgCl2 solution, pH 8.0; stock solution in PBS buffer (pH 7.2, 0.01 M). For each degradation experiment, stock solutions of the peptidic substrate and the enzyme were made using phosphate-buffered saline (PBS) buffer solution. […] The pH was adjusted either with NaOH (1 M) or with HCl (1 M) prior to use. A solution of the substrate in PBS buffer (pH 7.2, 0.01 M) and a solution of the required amount of enzyme, were mixed and incubated at 25° C. for 4 hours. Degradation was stopped with concentrated AcOH, and buffer solution was added so that the total volume reached 150 μL.
The resulting mixture was analyzed by reversed-phase HPLC. A mixture of CH3CN/H2O (0.1% TFA) was used as eluent. Gradients were 10% CH3CN to 100% CH3CN in 10 minutes. The flow rate, for all separations, was 1 mL·min^−1.

[2] = Solubility of glucagon analogs (UV absorbance); assay type: physicochemical; settings: for solubility: 0.01M HCl solution adjusted to pH 7 with Na2HPO4, pH 7, pH adjusted to 7 with Na2HPO4, incubated overnight at 4° C.; for ratio (solubility relative to reference compound 16): relative to compound 16;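 on all read-outs here: peptide stock at 3 mg/ml in 0.01 M HCl, absorbance at 280 nm read before neutralization and again on the diluted supernatant after centrifugation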
Protocol: A solution of 3 mg/ml of glucagon (or analog) was prepared in a 0.01M HCl solution. Then 0.1 ml of the stock solution was diluted to 1 ml with HCl (0.01M) and the UV absorbance measured (to 280 nm) with nanodrop UV spectrometer. The pH of the remaining stock solution was adjusted to 7 using Na2HPO4, and the solution was incubated overnight at 4° C. The solution was then centrifuged three times (5 minutes, 4000 rotations per minute), 0.1 ml of the supernatant was removed and diluted to 1 ml with HCl solution (0.01M).
The final UV absorbance was measured.

[3] = biological target: T2, human glucagon receptor (Homo sapiens, UniProt P47871); assay: Glucagon functional assay: agonist activity by cAMP production (HTRF) in transfected CHO cells; assay type: cell-based; settings: cAMP production, transfected CHO cells, 10 minutes at 37° C.
T2 construct: expressed in transfected cells; host or cells: CHO cells
Protocol: Functional Assay to Examine Bioactivity of Glucagon Receptor Agonists. Evaluation of the agonist activity of compounds at the human glucagon receptor expressed in transfected CHO cells was examined by measuring their effects on cAMP production using the HTRF detection method. […] For stimulated control measurement, separate assay wells contain 100 nM glucagon were utilized.
Following incubation, the cells were lysed and the fluorescence acceptor (D2-labeled cAMP) and fluorescence donor (anti-cAMP antibody labeled with europium cryptate) were added. […] The results are expressed as a percent of the control response to 100 nM glucagon. The standard reference agonist is glucagon, which was tested in each experiment at several concentrations to generate a concentration-response curve from which its EC50 value was calculated.
HTRF (Homogeneous Time-Resolved Fluorescence) principle. The HTRF technology is based on time resolved fluorescence energy transfer (TR-FRET), which occurs between long-lived fluorophore Europium or Terbium Cryptates, and EuK or Tb respectively, as a donor and the allophycocyanin XL665, d2 or Red as acceptor. Many compounds and proteins present in biological fluids or serum are naturally fluorescent, and the use of conventional, prompt fluorescence leads to serious limitations in assay sensitivity. The use of long-lived fluorophore combined with time-resolved detection (a delay between excitation and emission detection) minimizes prompt fluorescence interference.

T2 sequence (P47871 26-477): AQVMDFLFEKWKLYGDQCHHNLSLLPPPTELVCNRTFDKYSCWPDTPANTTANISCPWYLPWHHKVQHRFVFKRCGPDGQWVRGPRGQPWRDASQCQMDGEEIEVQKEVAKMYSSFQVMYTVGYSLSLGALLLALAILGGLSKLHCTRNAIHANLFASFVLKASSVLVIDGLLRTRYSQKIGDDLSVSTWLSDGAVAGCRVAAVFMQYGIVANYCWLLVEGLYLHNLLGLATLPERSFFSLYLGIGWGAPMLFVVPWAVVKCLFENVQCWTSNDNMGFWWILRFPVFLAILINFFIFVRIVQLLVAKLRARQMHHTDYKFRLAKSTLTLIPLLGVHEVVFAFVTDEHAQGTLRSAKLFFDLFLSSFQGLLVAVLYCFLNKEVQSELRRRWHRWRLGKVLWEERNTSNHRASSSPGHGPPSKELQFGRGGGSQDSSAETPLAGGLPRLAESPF

In the case of `CCCC[C@H](NC(=O)[C@H](CC(C)C)NC(=O)[C@H](Cc1c[nH]c2ccccc12)NC(=O)[C@H](CCC(N)=O)NC(=O)[C@@H](NC(=O)[C@H](Cc1ccccc1)NC(=O)[C@H](CC(=O)O)NC(=O)[C@H](CCC(N)=O)NC(=O)[C@H](C)NC(=O)[C@H](CCCNC(=N)N)NC(=O)[C@H](CCCNC(=N)N)NC(=O)[C@H](CO)NC(=O)[C@H](CC(=O)O)NC(=O)[C@H](CC(C)C)NC(=O)[C@H](Cc1ccc(O)cc1)NC(=O)[C@H](CCCCN)NC(=O)[C@H](CO)NC(=O)[C@H](Cc1ccc(O)cc1)NC(=O)[C@H](CC(=O)O)NC(=O)[C@H](CO)NC(=O)[C@@H](NC(=O)[C@H](Cc1ccccc1)NC(=O)[C@@H](NC(=O)CNC(=O)[C@H](CCC(N)=O)NC(=O)[C@H](CO)NC(=O)NC[C@@H](N)Cc1c[nH]cn1)[C@@H](C)O)[C@@H](C)O)C(C)C)C(=O)N[C@@H](CC(N)=O)C(=O)N[C@H](C(=O)O)[C@@H](C)O` [Compound 17], the “stability (half-life) with leucyl aminopeptidase compared to native peptides” value [1] is reported as “more stable than the native peptides”.
With `CCCC[C@H](NC(=O)[C@H](CC(C)C)NC(=O)[C@H](Cc1c[nH]c2ccccc12)NC(=O)[C@H](CCC(N)=O)NC(=O)[C@@H](NC(=O)[C@H](Cc1ccccc1)NC(=O)[C@H](CC(=O)O)NC(=O)[C@H](CCC(N)=O)NC(=O)[C@H](C)NC(=O)[C@H](CCCNC(=N)N)NC(=O)[C@H](CCCNC(=N)N)NC(=O)[C@H](CO)NC(=O)[C@H](CC(=O)O)NC(=O)[C@H](CC(C)C)NC(=O)[C@H](Cc1ccc(O)cc1)NC(=O)[C@H](CCCCN)NC(=O)[C@H](CO)NC(=O)[C@H](Cc1ccc(O)cc1)NC(=O)[C@H](CC(=O)O)NC(=O)[C@H](CO)NC(=O)[C@@H](NC(=O)[C@H](Cc1ccccc1)NC(=O)[C@@H](NC(=O)CNC(=O)[C@H](CCC(N)=O)NC(=O)NC[C@H](CO)NC(=O)[C@@H](N)Cc1c[nH]cn1)[C@@H](C)O)[C@@H](C)O)C(C)C)C(=O)N[C@@H](CC(N)=O)C(=O)N[C@H](C(=O)O)[C@@H](C)O` [Compound 18] the “stability (half-life) with leucyl aminopeptidase compared to native peptides” value [1] was “more stable than the native peptides”.
In the case of `CCCC[C@H](NC(=O)[C@H](CC(C)C)NC(=O)[C@H](Cc1c[nH]c2ccccc12)NC(=O)[C@H](CCC(N)=O)NC(=O)[C@@H](NC(=O)[C@H](Cc1ccccc1)NC(=O)NC[C@H](CC(=O)O)NC(=O)[C@H](CCC(N)=O)NC(=O)[C@H](C)NC(=O)[C@H](CCCNC(=N)N)NC(=O)[C@H](CCCNC(=N)N)NC(=O)[C@H](CO)NC(=O)[C@H](CC(=O)O)NC(=O)[C@H](CC(C)C)NC(=O)[C@H](Cc1ccc(O)cc1)NC(=O)[C@H](CCCCN)NC(=O)[C@H](CO)NC(=O)[C@H](Cc1ccc(O)cc1)NC(=O)[C@H](CC(=O)O)NC(=O)[C@H](CO)NC(=O)[C@@H](NC(=O)[C@H](Cc1ccccc1)NC(=O)[C@@H](NC(=O)CNC(=O)[C@H](CCC(N)=O)NC(=O)[C@H](CO)NC(=O)[C@@H](N)Cc1c[nH]cn1)[C@@H](C)O)[C@@H](C)O)C(C)C)C(=O)N[C@@H](CC(N)=O)C(=O)N[C@H](C(=O)O)[C@@H](C)O` [Compound 61], the solubility [2] is reported as 740 µg/mL (≈ 212 µM), the “ratio (solubility relative to reference compound 16)” value [2] is reported as 2.9 and the EC50 [3] is reported as 0.1 nM.
In the case of `CCCC[C@H](NC(=O)[C@H](CC(C)C)NC(=O)[C@H](Cc1c[nH]c2ccccc12)NC(=O)[C@H](CCC(N)=O)NC(=O)[C@@H](NC(=O)NC[C@H](Cc1ccccc1)NC(=O)[C@H](CC(=O)O)NC(=O)[C@H](CCC(N)=O)NC(=O)[C@H](C)NC(=O)[C@H](CCCNC(=N)N)NC(=O)[C@H](CCCNC(=N)N)NC(=O)[C@H](CO)NC(=O)[C@H](CC(=O)O)NC(=O)[C@H](CC(C)C)NC(=O)[C@H](Cc1ccc(O)cc1)NC(=O)[C@H](CCCCN)NC(=O)[C@H](CO)NC(=O)[C@H](Cc1ccc(O)cc1)NC(=O)[C@H](CC(=O)O)NC(=O)[C@H](CO)NC(=O)[C@@H](NC(=O)[C@H](Cc1ccccc1)NC(=O)[C@@H](NC(=O)CNC(=O)[C@H](CCC(N)=O)NC(=O)[C@H](CO)NC(=O)[C@@H](N)Cc1c[nH]cn1)[C@@H](C)O)[C@@H](C)O)C(C)C)C(=O)N[C@@H](CC(N)=O)C(=O)N[C@H](C(=O)O)[C@@H](C)O` [Compound 62], the solubility [2] is reported as 680 µg/mL (≈ 195 µM), the “ratio (solubility relative to reference compound 16)” value [2] is reported as 2.7 and the EC50 [3] is reported as 53 nM.
For `CCCC[C@H](NC(=O)[C@H](CC(C)C)NC(=O)[C@H](Cc1c[nH]c2ccccc12)NC(=O)[C@H](CCC(N)=O)NC(=O)NC[C@@H](NC(=O)[C@H](Cc1ccccc1)NC(=O)[C@H](CC(=O)O)NC(=O)[C@H](CCC(N)=O)NC(=O)[C@H](C)NC(=O)[C@H](CCCNC(=N)N)NC(=O)[C@H](CCCNC(=N)N)NC(=O)[C@H](CO)NC(=O)[C@H](CC(=O)O)NC(=O)[C@H](CC(C)C)NC(=O)[C@H](Cc1ccc(O)cc1)NC(=O)[C@H](CCCCN)NC(=O)[C@H](CO)NC(=O)[C@H](Cc1ccc(O)cc1)NC(=O)[C@H](CC(=O)O)NC(=O)[C@H](CO)NC(=O)[C@@H](NC(=O)[C@H](Cc1ccccc1)NC(=O)[C@@H](NC(=O)CNC(=O)[C@H](CCC(N)=O)NC(=O)[C@H](CO)NC(=O)[C@@H](N)Cc1c[nH]cn1)[C@@H](C)O)[C@@H](C)O)C(C)C)C(=O)N[C@@H](CC(N)=O)C(=O)N[C@H](C(=O)O)[C@@H](C)O` [Compound 63], the solubility [2] was 1280 µg/mL (≈ 366 µM), the “ratio (solubility relative to reference compound 16)” value [2] was 5.1 and the EC50 [3] was 30 nM.
For `CCCC[C@H](NC(=O)[C@H](CC(C)C)NC(=O)[C@H](Cc1c[nH]c2ccccc12)NC(=O)NC[C@H](CCC(N)=O)NC(=O)[C@@H](NC(=O)[C@H](Cc1ccccc1)NC(=O)[C@H](CC(=O)O)NC(=O)[C@H](CCC(N)=O)NC(=O)[C@H](C)NC(=O)[C@H](CCCNC(=N)N)NC(=O)[C@H](CCCNC(=N)N)NC(=O)[C@H](CO)NC(=O)[C@H](CC(=O)O)NC(=O)[C@H](CC(C)C)NC(=O)[C@H](Cc1ccc(O)cc1)NC(=O)[C@H](CCCCN)NC(=O)[C@H](CO)NC(=O)[C@H](Cc1ccc(O)cc1)NC(=O)[C@H](CC(=O)O)NC(=O)[C@H](CO)NC(=O)[C@@H](NC(=O)[C@H](Cc1ccccc1)NC(=O)[C@@H](NC(=O)CNC(=O)[C@H](CCC(N)=O)NC(=O)[C@H](CO)NC(=O)[C@@H](N)Cc1c[nH]cn1)[C@@H](C)O)[C@@H](C)O)C(C)C)C(=O)N[C@@H](CC(N)=O)C(=O)N[C@H](C(=O)O)[C@@H](C)O` [Compound 64], the solubility [2] was 940 µg/mL (≈ 269 µM), the “ratio (solubility relative to reference compound 16)” value [2] was 3.7 and the EC50 [3] was 0.16 nM.
For `CCCC[C@H](NC(=O)[C@H](CC(C)C)NC(=O)NC[C@H](Cc1c[nH]c2ccccc12)NC(=O)[C@H](CCC(N)=O)NC(=O)[C@@H](NC(=O)[C@H](Cc1ccccc1)NC(=O)[C@H](CC(=O)O)NC(=O)[C@H](CCC(N)=O)NC(=O)[C@H](C)NC(=O)[C@H](CCCNC(=N)N)NC(=O)[C@H](CCCNC(=N)N)NC(=O)[C@H](CO)NC(=O)[C@H](CC(=O)O)NC(=O)[C@H](CC(C)C)NC(=O)[C@H](Cc1ccc(O)cc1)NC(=O)[C@H](CCCCN)NC(=O)[C@H](CO)NC(=O)[C@H](Cc1ccc(O)cc1)NC(=O)[C@H](CC(=O)O)NC(=O)[C@H](CO)NC(=O)[C@@H](NC(=O)[C@H](Cc1ccccc1)NC(=O)[C@@H](NC(=O)CNC(=O)[C@H](CCC(N)=O)NC(=O)[C@H](CO)NC(=O)[C@@H](N)Cc1c[nH]cn1)[C@@H](C)O)[C@@H](C)O)C(C)C)C(=O)N[C@@H](CC(N)=O)C(=O)N[C@H](C(=O)O)[C@@H](C)O` [Compound 65], the solubility [2] was 850 µg/mL (≈ 243 µM), the “ratio (solubility relative to reference compound 16)” value [2] was 3.4 and the EC50 [3] was 1.5 nM.
